ChEMBL document CHEMBL1201862, “PubChem BioAssay data set” (2004)
Activity calls are given as the source filed them.

Tests used:
[1] = A cytotoxicity screen of small molecule inhibitors of the PhoP region in Salmonella typhi identified in the primary screen. [Related pubchem assays: 1850, 1864, 1985 ]; type: functional
Cytochrome P450 3A4 = Cytochrome P450 3A4 (Homo sapiens, UniProt P08684); conditions: Potency;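 note: confirmatory qHTS run detecting inhibitors and substrates of CYP3A4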
cells [2] = type: functional, cell-based
cells [3] = type: functional, cell-based; remark: listed apart in the source
[4] = THP-1 cell cytotoxicity, dose response, cytotoxicity control for non-replicating M. tuberculosis project (AID 489025); type: functional
[5] = NIH3T3 cell viability loss – ATP luminescence, mouse fibroblasts, counter-screen, dose response (AID 2010); type: functional, cell-based;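 note: cells exposed to compound for about 90 hours before reading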
cells [6] = type: functional
[7] = Trypanosoma cruzi growth suppression in host cells – NIH3T3 host cells, beta-gal luminescence, confirmation (AID 2044); type: functional, cell-based;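 note: intracellular parasites grown in NIH/3T3 mouse fibroblasts as host cells; luminescent beta-galactosidase reporter signal from transgenic T. cruzi replicating inside host cells; inhibitors lower the luminescence signal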
[8] = target: T1, Short transient receptor potential channel 4 (Mus musculus, UniProt Q9QUQ5); assay: calcium entry via TRPC4 opening agents – cell-based, HEK293 TRPC4/mu-opioid, Fluo-4 calcium, dose response (AID 434937); type: functional
T1 sequence (Q9QUQ5 whole entry): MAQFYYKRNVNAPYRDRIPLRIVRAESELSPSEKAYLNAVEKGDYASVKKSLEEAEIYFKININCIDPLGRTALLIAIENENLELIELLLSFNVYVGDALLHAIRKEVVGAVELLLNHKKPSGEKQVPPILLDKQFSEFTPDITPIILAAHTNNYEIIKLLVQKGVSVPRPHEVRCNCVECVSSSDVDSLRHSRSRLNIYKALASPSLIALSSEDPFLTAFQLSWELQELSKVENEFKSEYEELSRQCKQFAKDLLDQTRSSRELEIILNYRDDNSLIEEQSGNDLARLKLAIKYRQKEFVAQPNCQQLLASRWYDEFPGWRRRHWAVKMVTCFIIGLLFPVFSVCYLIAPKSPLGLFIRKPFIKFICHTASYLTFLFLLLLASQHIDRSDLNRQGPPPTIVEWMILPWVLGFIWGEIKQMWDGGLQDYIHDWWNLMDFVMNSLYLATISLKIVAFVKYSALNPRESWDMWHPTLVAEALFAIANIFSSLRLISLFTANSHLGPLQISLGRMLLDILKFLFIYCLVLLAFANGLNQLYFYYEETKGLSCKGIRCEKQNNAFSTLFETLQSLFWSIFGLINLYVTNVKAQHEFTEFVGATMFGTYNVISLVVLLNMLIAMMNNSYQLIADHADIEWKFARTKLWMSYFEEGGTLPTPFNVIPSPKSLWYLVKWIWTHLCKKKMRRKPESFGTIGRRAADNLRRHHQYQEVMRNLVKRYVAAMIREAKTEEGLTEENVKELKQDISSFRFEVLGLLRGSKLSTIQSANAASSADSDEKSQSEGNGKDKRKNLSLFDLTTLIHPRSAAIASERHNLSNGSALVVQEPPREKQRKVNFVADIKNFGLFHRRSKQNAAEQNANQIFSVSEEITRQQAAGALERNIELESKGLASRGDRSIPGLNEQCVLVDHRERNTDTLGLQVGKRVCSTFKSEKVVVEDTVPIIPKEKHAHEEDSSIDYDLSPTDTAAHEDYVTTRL

[9] = fluconazole-exposed Candida albicans growth modulators – fluorescence, retest, confirmation (AID 2467); type: functional, cell-based
Streptococcus = assay: GAS UMAA2166 growth inhibition – luminescence, BacTiterGlo, counter-screen for streptokinase expression inhibitor project, dose response (AID 1915); type: functional, organism-based;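 note: potency for reduction of bacterial viability or growth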
[10] = NIH-3T3 fibroblast cytotoxicity, dose response, cytotoxicity control, cell-based, fluorescence, Alamar Blue, secondary assay (AID 2327); type: functional;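 note: NIH-3T3 mouse fibroblasts cultured with fluconazole at 8 µg/mL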
[11] = test system: Streptococcus sp. 'group A'; assay: Streptococcus pyogenes SK(-)GAS viability under kanamycin – luminescence, BacTiterGlo, confirmation, counter-screen for streptokinase expression inhibitor project, dose response (AID 1900); type: functional, organism-based
Estrogen receptor = target: T2, Estrogen receptor (Homo sapiens, UniProt P03372);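 note: potency for inhibiting coactivator peptide recruitment to the receptor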
T2 sequence (P03372 whole entry): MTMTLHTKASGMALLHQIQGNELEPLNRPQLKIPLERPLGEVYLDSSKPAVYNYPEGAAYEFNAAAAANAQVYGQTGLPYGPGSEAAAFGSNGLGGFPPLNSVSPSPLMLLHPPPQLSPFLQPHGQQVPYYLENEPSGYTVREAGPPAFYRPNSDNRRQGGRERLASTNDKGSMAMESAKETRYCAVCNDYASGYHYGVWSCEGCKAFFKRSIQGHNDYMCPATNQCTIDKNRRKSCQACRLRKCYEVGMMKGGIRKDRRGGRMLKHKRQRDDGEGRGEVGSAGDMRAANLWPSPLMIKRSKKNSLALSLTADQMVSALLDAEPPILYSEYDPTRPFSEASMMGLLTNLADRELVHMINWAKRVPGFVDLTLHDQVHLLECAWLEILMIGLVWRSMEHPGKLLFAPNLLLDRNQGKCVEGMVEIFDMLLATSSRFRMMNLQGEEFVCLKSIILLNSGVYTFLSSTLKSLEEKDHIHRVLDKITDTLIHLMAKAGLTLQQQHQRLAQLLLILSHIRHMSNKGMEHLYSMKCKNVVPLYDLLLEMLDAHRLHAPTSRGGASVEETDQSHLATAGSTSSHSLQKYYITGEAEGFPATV

[12] = HEK-293T viability loss after treatment – luminescence, T-cell screen hits, cytotoxicity control for TCR NF-kB inhibitor project, dose response (AID 489026); type: functional, cell-based;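 note: cells exposed to compound about 14 hours before the viability readout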
[13] = target: T1, Short transient receptor potential channel 4; assay: block of DAMGO-driven TRPC4 calcium entry – cell-based, HEK293 TRPC4/mu-opioid, Fluo-4 calcium, dose response (AID 434942); type: functional;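 note: potency of inhibitors blocking the TRPC4 calcium response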
[14] = viability loss in THP-1 monocytes – THP-1 cells, cytotoxicity control for Vif-APOBEC3G degradation inhibitor project, dose response (AID 1117359); type: functional; conditions: THP-1
[15] = target: T3, Rac GTPase-activating protein 1 (Homo sapiens, UniProt Q9H0H5); assay: blockers of MgcRacGAP-driven Rac1 GTP hydrolysis – biochemical, ADP Hunter fluorescence, primary and confirmatory, confirmation (AID 624330); type: functional
T3 sequence (Q9H0H5 whole entry): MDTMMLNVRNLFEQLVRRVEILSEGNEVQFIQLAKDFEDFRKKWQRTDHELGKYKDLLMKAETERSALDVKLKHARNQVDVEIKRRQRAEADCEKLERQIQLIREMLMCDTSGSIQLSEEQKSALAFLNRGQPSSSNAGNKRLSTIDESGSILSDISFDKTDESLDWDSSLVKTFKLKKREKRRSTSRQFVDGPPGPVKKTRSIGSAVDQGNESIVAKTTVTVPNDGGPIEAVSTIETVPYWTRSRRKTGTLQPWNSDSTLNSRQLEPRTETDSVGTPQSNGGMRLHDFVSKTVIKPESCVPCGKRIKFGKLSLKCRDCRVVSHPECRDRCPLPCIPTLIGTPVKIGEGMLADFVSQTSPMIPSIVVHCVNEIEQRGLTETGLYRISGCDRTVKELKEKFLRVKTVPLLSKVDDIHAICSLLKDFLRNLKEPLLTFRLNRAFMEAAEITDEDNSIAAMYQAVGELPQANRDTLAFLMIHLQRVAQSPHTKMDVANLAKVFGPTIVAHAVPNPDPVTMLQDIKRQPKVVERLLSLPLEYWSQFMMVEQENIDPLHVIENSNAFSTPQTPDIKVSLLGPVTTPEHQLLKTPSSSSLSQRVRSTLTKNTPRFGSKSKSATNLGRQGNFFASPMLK

[16] = viability of HCT116 lacking mutant beta-catenin – cell-based, human colon tumor, dose response (AID 1045); type: functional;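 note: HCT116 colon tumor cells with beta catenin knocked out; cells exposed to compound for 60 hours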
[17] = target: Induced myeloid leukemia cell differentiation protein Mcl-1 (Homo sapiens, UniProt Q07820); type: functional
[18] = target: DNA dC->dU-editing enzyme APOBEC-3G (Homo sapiens, UniProt Q9HC16); assay: Dose Response confirmation of small molecule APOBEC3G DNA Deaminase Inhibitors via a fluorescence-based single-stranded DNA deaminase assay. [Related pubchem assays (depositor defined):AID493012, AID493028]; type: functional
[19] = OVCAR8 cell viability loss – plate reader, dry powder samples, PAX8 project, dose response (AID 743197); type: functional, cell-based; conditions: OVCAR-8
[20] = toxicity to human HepG2 hepatoma cells – cell-based, plate reader, dry powder samples, cytotoxicity control, dose response (AID 1159569); type: functional;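 note: inhibitor potency with signal falling toward the positive control level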
Paired box protein Pax-8 = Paired box protein Pax-8 (Homo sapiens, UniProt Q06710); assay: PAX8 transcriptional activity inhibition in RMG-I – RMG-I cells, luciferase, cherry-pick, dose response (AID 687027); type: functional, cell-based;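 note: luciferase reporter driven by Pax8 target thyroperoxidase promoter measured by SteadyGlo luminescence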
[21] = growth inhibition of yeast DHODH-expressing 3D7 parasites – SYBR Green, dry powder samples, dose response (AID 1159570); type: functional, cell-based;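 note: parasite growth measured after 72 hours of compound exposure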
[22] = Dd2 malaria parasite growth inhibition potency – SYBR Green, dry powder samples, dose response (AID 1159566); type: functional, cell-based;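 note: potency for growth inhibition with lower SYBR green DNA signal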
[23] = P. falciparum Dd2 growth inhibitors, dose response, SYBR Green, cherry-picked samples (AID 1159567); type: functional, cell-based
[24] = growth inhibition of PfATP4-mutant resistant parasites – NITD609-resistant line, SYBR Green, dry powder, dose response (AID 1159571); type: functional, cell-based;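 note: parasites synchronized at ring stage by sorbitol before testing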

DNA dC->dU-editing enzyme APOBEC-3G, sequence (Q9HC16 whole entry): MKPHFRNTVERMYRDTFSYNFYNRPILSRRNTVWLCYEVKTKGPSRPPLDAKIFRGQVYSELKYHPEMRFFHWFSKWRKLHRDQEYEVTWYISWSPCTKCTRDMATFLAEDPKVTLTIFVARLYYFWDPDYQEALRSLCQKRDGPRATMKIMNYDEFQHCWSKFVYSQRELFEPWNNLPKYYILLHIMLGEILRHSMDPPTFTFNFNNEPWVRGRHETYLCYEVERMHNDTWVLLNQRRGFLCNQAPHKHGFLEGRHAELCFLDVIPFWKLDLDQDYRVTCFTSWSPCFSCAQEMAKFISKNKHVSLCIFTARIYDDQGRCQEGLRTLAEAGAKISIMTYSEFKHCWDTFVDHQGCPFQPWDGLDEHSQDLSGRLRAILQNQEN
Cytochrome P450 3A4, sequence (P08684 whole entry): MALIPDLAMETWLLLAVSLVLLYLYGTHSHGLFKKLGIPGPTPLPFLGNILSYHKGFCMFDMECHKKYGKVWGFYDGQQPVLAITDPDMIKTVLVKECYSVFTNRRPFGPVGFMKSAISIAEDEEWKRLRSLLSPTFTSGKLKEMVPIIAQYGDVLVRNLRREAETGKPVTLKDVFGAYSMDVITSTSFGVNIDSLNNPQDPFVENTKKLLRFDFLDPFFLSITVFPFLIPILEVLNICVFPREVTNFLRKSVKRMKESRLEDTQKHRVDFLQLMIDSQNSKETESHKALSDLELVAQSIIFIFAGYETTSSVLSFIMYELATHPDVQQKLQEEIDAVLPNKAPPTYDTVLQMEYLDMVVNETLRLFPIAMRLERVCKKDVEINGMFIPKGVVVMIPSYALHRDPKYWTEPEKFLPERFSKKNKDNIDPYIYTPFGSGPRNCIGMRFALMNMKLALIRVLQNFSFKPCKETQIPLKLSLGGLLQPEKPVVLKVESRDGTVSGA
Induced myeloid leukemia cell differentiation protein Mcl-1, sequence (Q07820 whole entry): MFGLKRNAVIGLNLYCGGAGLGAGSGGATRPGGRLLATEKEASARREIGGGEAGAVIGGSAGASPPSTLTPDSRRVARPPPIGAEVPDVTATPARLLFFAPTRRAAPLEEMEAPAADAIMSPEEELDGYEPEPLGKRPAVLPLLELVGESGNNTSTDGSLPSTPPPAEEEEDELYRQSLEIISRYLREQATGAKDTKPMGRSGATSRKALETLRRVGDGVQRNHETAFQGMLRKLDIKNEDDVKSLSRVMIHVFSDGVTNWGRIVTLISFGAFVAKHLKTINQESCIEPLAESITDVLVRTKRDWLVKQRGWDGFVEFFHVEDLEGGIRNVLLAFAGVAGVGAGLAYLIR
Paired box protein Pax-8, sequence (Q06710 whole entry): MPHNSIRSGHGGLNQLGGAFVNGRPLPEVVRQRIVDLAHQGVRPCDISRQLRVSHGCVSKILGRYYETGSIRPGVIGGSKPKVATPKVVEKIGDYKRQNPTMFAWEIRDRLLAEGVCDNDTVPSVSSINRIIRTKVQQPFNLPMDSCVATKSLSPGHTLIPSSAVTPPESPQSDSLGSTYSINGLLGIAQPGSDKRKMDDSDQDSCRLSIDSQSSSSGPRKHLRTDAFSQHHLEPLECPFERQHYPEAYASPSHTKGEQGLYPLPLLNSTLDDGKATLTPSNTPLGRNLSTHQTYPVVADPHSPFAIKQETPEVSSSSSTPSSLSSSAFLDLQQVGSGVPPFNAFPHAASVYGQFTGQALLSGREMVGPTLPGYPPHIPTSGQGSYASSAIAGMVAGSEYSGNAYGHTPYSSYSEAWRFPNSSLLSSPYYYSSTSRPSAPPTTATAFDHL

Clc1cccc(CN2C3=NCCCN3c3ccccc32)c1
EC50 [1]: > 50 µM (active)

C=CCC1(C)OC=Cc2nc3cc(Cl)c(Cl)cc3nc21 (stereo not given)
AC50 (Cytochrome P450 3A4): 3.98 µM (inconclusive)

C=CCN(c1ccccc1)S(=O)(=O)c1cccc(C(=O)Nc2ncccc2O)c1
EC50 (cells [2]): > 350 µM (not active) | EC50 (cells [3]): > 350 µM (not active)

O=C(NC(=S)NNC(=O)[C@H]1C[C@@H]1c1ccccc1)c1cccc(F)c1
CC50 [4]: > 40 µM (active) | EC50 [5]: 17.6 µM (active) | IC50 (cells [6]): 18.8 µM (active) | EC50 [7]: 3.91 µM (active) | EC50 [8]: 4.22 µM (active) | EC50 [9]: 1.91 µM (active) | EC50 (Streptococcus): 3.65 µM (active) | EC50 [10]: > 160 µM (inactive) | EC50 [11]: 1.89 µM (active)

O=C(CCC(=O)c1cccs1)Nc1nnc(C2CC2)s1
IC50 (Estrogen receptor): > 50 µM (not active)

Cn1nc(C(=O)NCCCN2CCCCC2)c2c1-c1ccccc1S(=O)(=O)C2
EC50 (cells [2]): > 350 µM (not active) | EC50 (cells [3]): > 350 µM (not active)

O=C(Nc1ccc2oc(-c3ccccc3F)nc2c1)c1cncc(Br)c1
IC50 (Estrogen receptor): 15.5 µM (active)

CCCn1c(C)nc2c(Nc3ccccc3)nc(C)nc21
AC50 (Cytochrome P450 3A4): 31.6 µM (inconclusive)

COc1ccc(OC)c(Nc2cc(-c3ccccc3)nc(N)n2)c1
IC50 [12]: > 80 µM (inactive) | EC50 [13]: 4.73 µM (active)

CCN(CC)S(=O)(=O)c1ccc(/C=C/C(=O)Nc2ccc(N3CCOCC3)cc2)cc1
CC50 [14]: > 40 µM (active)

Cc1cc(NS(=O)(=O)c2ccc(NC(=O)C(C)Oc3ccc4c(C)cc(=O)oc4c3)cc2)no1 (stereo not given)
EC50 [1]: > 50 µM (active)

CCCCN(CCCC)CCNC(=O)CSCc1ccc(C)cc1
IC50 [15]: 147 µM (active) | EC50 [1]: > 50 µM (active)

CCN(CC)c1ccc(NC2=C(Cl)C(=O)c3ccccc3C2=O)cc1
CC50 [14]: 4.24 µM (active) | EC50 [16]: 1 µM (active) | IC50 [17]: 1.47 µM (active)

Cn1c(CN2CCCC2)nc2cc(NC(=O)COc3ccc(Cl)cc3)ccc21
EC50 [1]: > 50 µM (active)

C=C(C)C(=O)Nc1cccc(C2=NOC3(C2)C[C@@H](C(N)=O)N(C(=O)[C@H]2CCC(=O)N2)C3)c1 (stereo not given in full)
IC50 [18]: 19.3 µM (active)

O=C(CCCCCN1C(=O)c2ccccc2C1=O)Nc1ccc2c(c1)OCCO2
EC50 (cells [2]): > 350 µM (not active) | EC50 (cells [3]): > 350 µM (not active)

CCCCn1c(NCc2ccc(N(C)C)cc2)nc2ccccc21
EC50 [13]: 1.5 µM (active) | IC50 [17]: 1.26 µM (active)

Cc1cc(C)cc(NC(=O)c2cccc(NC(=O)c3ccco3)c2)c1
EC50 (cells [2]): > 350 µM (not active) | EC50 (cells [3]): 34.9 µM (active)

O=C(CC(=O)NCc1ccccc1)NCc1ccccc1
EC50 [1]: > 50 µM (active)

O=C(c1cccc(C(F)(F)F)c1)C1CCCN(Cc2cccn2-c2ccccn2)C1 (stereo not given)
EC50 [13]: 5.96 µM (active)

O=C(CSc1ccccc1)Nc1nnc(COc2ccc(Cl)cc2)s1
IC50 [18]: 32.3 µM (active)

OC1(c2ccc(F)cc2)CCN(Cc2ccccc2)C1 (stereo not given)
EC50 [13]: 2.99 µM (active)

CCC(C)NC(=O)CSc1ccc(S(=O)(=O)N2CCN(Cc3ccccc3)CC2)cn1 (stereo not given)
CC50 [14]: > 40 µM (active)

C[C@H]1CN([C@@H](C)CO)C(=O)c2c(c3ccccc3n2C)-c2ccccc2CO[C@H]1CN(C)S(=O)(=O)c1ccc(C(F)(F)F)cc1
AC50 [19]: 50.8 µM (active) | AC50 [20]: 32.1 µM (active) | AC50 (Paired box protein Pax-8): 3.69 µM (active) | AC50 [21]: 0.251 µM (active) | AC50 [22]: 0.23 µM (active) | AC50 [23]: < 0.3 µM (active) | AC50 [24]: 0.216 µM (active)

Cc1cc(-c2nnc(S)n2/N=C/c2ccco2)[nH]n1
IC50 [18]: 14.2 µM (active)

CC1(C)CC2C1CCC1(C)OC1CCC2(C)O (stereo not given) [2-HYDROXY-5 (6)EPOXY-TETRAHYDROCARYOPHYLLENE]
AC50 (Cytochrome P450 3A4): 25.1 µM (inconclusive)

C=C[C@H]1CN2CC[C@H]1C[C@H]2c1[nH]c2ccccc2c1CCO [CINCHONAMINE]
AC50 (Cytochrome P450 3A4): 31.6 µM (inconclusive)
